Experiments:
[1] = biological target: T1, Nuclear receptor ROR-gamma (Homo sapiens, UniProt P51449); experiment: Antagonist activity at human His6-tagged RORgamma ligand binding domain (262 to 507 aa) assessed as inhibition of SRC1-4 co-activator peptide recruitment by luminescence-based AlphaScreen assay
T1 sequence (P51449 whole entry): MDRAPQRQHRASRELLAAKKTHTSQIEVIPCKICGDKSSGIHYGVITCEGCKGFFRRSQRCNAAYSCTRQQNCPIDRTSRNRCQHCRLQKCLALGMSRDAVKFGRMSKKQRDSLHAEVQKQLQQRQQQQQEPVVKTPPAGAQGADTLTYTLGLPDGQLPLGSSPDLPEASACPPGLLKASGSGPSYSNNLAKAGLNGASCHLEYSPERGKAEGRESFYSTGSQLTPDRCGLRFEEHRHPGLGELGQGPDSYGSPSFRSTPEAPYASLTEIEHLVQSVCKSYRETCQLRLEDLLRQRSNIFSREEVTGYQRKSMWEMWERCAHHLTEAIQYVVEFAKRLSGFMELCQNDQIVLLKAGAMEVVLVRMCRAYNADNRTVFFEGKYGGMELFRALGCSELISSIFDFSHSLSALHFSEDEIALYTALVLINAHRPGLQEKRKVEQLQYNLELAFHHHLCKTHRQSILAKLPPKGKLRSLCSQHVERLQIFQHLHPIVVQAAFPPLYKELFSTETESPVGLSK

[2] = biological target: T1, Nuclear receptor ROR-gamma; experiment: Antagonist activity at Gal4-fused RORgamma (unknown origin) expressed in 293T cells after 24 hrs by luciferase reporter gene assay; assay type: cell-based
[3] = biological target: T1, Nuclear receptor ROR-gamma; experiment: Antagonist activity at full-length RORgamma (unknown origin) expressed in 293T cells after 24 hrs by luciferase reporter gene assay; assay type: cell-based

Row | SMILES | IC50 [1] [µM] | IC50 [2] [µM] | IC50 [3] [µM]
1 | CCN1C(=O)c2cccc3c(S(=O)(=O)Nc4ccccc4C(=O)c4ccccc4)ccc1c23 | 156 | – | –
2 | C=CCn1c(CCCN2C(=O)c3cccc4cccc(c34)C2=O)nnc1SCC(=O)Nc1ccc(S(N)(=O)=O)cc1 | 142 | – | –
3 | NC(=O)c1ccc(NC(=O)c2cccc(COc3ccc(Cl)cc3)c2)cc1 | 168 | – | –
4 | C=CCn1c(COc2ccc(Cl)cc2)nnc1SCC(=O)N/N=C/c1cccc(O)c1 | 56.6 | – | –

Next, values leading:

Row | IC50 [1] [µM] | IC50 [2] [µM] | IC50 [3] [µM] | SMILES
5 | 6.47 | 0.09 | 0.08 | CCN1C(=O)c2cccc3c(S(=O)(=O)N(C(=O)c4ccncc4)c4ccc(OC)cc4)ccc1c23
6 | 174 | – | – | CCN1C(=O)c2cccc3c(S(=O)(=O)NCc4ccc(OC)cc4)ccc1c23
7 | – | 6.03 | 0.59 | CCN1C(=O)c2cccc3c(S(=O)(=O)NCC4CCN(C(C)=O)CC4)ccc1c23

— ChEMBL document CHEMBL3232726, “Discovery of 2-oxo-1,2-dihydrobenzo[cd]indole-6-sulfonamide derivatives as new RORγ inhibitors using virtual screening, synthesis and biological evaluation” (Eur J Med Chem, 2014)
